Results from US20170239237A1, “PYRROLOQUINOLINE DERIVATIVES AS 5-HT6 ANTAGONISTS, PREPARATION METHOD AND USE THEREOF” (Uniwersytet Jagiellonski, priority 2013, published 2017).
Where two headings read alike, the source gives them in different places. Marks after values point to notes of the source that are not given here.

Tests used:
[1] = molecular target: T1, 5-HT6 receptor (Homo sapiens, UniProt P50406); assay: Radioligand binding, 5-HT6 ([3H]-LSD displacement)
[2] = molecular target: 5-HT7 receptor (Homo sapiens, UniProt P34969); assay: Radioligand binding, 5-HT7 ([3H]-5-CT displacement)
Sequence of 5-HT7 receptor (P34969 1-432 limits assumed): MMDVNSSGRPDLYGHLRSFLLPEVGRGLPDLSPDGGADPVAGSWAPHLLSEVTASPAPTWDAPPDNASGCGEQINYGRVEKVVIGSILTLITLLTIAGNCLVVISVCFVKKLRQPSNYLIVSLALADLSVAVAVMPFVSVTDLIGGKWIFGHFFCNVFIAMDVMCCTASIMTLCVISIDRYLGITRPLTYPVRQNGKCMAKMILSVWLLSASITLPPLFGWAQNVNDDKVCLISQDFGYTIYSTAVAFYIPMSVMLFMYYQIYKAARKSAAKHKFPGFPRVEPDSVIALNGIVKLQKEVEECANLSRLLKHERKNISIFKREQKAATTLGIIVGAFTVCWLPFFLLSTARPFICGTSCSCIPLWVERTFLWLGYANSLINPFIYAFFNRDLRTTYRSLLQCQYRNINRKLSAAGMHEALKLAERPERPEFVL

[3] = molecular target: dopamine D2L receptor (Homo sapiens, UniProt P14416); assay: Radioligand binding, D2 ([3H]-raclopride displacement)
Sequence of dopamine D2L receptor (P14416 whole entry): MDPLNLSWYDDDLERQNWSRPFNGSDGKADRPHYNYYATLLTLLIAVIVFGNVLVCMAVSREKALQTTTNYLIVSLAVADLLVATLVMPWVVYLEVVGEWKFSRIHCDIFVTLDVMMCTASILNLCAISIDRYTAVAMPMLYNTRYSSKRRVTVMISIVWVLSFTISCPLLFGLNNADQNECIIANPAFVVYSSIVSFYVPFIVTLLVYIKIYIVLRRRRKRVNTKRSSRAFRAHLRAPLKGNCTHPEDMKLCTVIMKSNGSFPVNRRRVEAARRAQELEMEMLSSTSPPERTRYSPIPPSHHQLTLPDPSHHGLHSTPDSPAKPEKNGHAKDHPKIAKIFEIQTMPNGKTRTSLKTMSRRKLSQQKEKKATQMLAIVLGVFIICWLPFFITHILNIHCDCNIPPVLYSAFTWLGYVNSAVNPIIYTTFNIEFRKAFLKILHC

[4] = molecular target: T2, 5-HT1A receptor (Homo sapiens, UniProt P08908); assay: Radioligand binding, 5-HT1A ([3H]-8-OH-DPAT displacement)
T2 sequence (P08908 1-422): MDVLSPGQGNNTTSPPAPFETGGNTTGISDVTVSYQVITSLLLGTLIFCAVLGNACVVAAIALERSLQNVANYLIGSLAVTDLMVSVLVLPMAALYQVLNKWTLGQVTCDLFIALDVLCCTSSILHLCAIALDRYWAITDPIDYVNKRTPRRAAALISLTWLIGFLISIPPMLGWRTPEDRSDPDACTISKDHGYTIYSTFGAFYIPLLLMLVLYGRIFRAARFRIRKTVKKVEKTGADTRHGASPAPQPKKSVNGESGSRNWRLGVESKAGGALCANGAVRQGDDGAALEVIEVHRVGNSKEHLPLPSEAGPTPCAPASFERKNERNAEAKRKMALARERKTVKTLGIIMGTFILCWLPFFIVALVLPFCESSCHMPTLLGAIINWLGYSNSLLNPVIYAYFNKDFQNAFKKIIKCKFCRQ

[5] = molecular target: T1, 5-HT6 receptor; assay: CHO-human-5HT6-Aequorin functional assay (ago-/antagonism); details: test concentration not given; for % inhibition of control agonist response: agonist effect, CHO-human-5HT6-Aequorin cells; for % inhibition of control antagonist response: antagonist effect vs 10^-6 M α-methylserotonin induced luminescence
[6] = system: Wistar rats; assay: Conflict drinking test (Vogel test) in Wistar rats; type: in vivo, rat
Protocol: For intraperitoneal (i.p.) administration: to the desired quantity of the solid compound in a glass beaker, required volume of sterile water for injection was added and swirled with glass bar until complete dissolution of the compound.
Animals. Male Wistar rats weighing 220-250 g were used in the test. […] All animals were kept in an environmentally controlled rooms (ambient temperature 22±2° C; relative humidity 50-60%; 12:12 light:dark cycle, lights on at 8:00). They were allowed to acclimatize with the environment for one week before commencement of the experiments. Standard laboratory food (Ssniff M-Z) and filtered water were freely available. The experiments were conducted in the light phase between 09.00 and 14.00 hours. 1 h before the start of the experiment, rats were transferred to the experimental room for acclimation.
Apparatus and procedure. […] Experimental chambers were connected to PC software by control chassis and electric shocks' generator. On the first day of the experiment, the rats were adapted to the test chambers for 10 min. […] Afterwards, they were allowed a 30-min free-drinking session in their home cages. […] Recording data started immediately after the first lick and every 20 licks rats were punished with an electric shock (0.5 mA, lasting 1 s). The impulses were released via the spout of the drinking bottles. If a rat was drinking when an impulse was released, it received a shock. The number of licks and the number of shocks received during a 5-min experimental session was recorded automatically.
Experimental design. The compounds were administered IP, 60 minutes before the test.
Drugs. The experimental compounds were dissolved in the distilled water. All compounds were administrated in the volume of 2 ml/kg.

[7] = read-out: Ki 5-HT6, cloned human receptor in HEK293, three independent experiments, SEM ± 22%

T1 sequence (P50406 whole entry): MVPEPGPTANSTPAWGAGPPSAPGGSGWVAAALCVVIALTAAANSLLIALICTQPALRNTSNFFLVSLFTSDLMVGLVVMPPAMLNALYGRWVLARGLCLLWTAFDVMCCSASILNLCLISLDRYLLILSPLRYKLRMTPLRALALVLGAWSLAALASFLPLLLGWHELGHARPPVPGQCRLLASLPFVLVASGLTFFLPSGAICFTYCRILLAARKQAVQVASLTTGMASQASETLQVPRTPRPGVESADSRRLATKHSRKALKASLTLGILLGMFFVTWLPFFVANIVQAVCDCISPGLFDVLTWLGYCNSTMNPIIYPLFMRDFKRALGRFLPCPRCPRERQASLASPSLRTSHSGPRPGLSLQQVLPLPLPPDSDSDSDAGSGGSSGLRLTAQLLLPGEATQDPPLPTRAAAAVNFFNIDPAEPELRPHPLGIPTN

Structure (SMILES)	Ki [1] [nM]	Ki [2] [nM]	Ki [3] [nM]	Ki [4] [nM]	% inhibition of control agonist response [5] [%]	% inhibition of control antagonist response [5] [%]	Minimum effective dose, conflict drinking (Vogel test) in rats (potential anxiolytic properties) ([6]; IP, 60 minutes before the test, Wistar rats) [mg/kg]	displacement % at 10^−6M, 5-HT6 ([1]; 10^−6 M, values marked c in the 5-HT6 column)	Ki [1, 7] [nM]	Ki ([2]; read-out: Ki 5-HT7, cloned human receptor in HEK293, three independent experiments, SEM ± 22%) [nM]	Ki ([3]; read-out: Ki D2, cloned human receptor in HEK293, three independent experiments, SEM ± 22%) [nM]	Ki ([4]; read-out: Ki 5-HT1A, cloned human receptor in HEK293, three independent experiments, SEM ± 22%) [nM]	active dose in the conflict drinking test (Vogel test), increasing number of licks and shocks received ([6]; rats) [mg/kg]
O=S(=O)(c1cccc(F)c1)n1ccc2c(NC3CCNC3)nc3ccccc3c21 (stereo not drawn) [Compound 8, 1-((3-fluorophenyl)sulfonyl)-N-(pyrrolidin-3-yl)-1H-pyrrolo[3,2-c]quinolin-4-amine]	5	9590	900	3010	9.6	80.8	–	–	–	–	–	–	–
O=S(=O)(c1cccc(F)c1)n1ccc2c(N[C@@H]3CCNC3)nc3ccccc3c21 [Compound 10, (R)-1-((3-fluorophenyl)sulfonyl)-N-(pyrrolidin-3-yl)-1H-pyrrolo[3,2-c]quinolin-4-amine]	–	–	–	–	–	–	10	100^c %	–	–	–	–	–
O=S(=O)(c1ccc(F)cc1)n1ccc2c(NC3CCNC3)nc3ccccc3c21 (stereo not drawn) [Compound 11, 1-((4-fluorophenyl)sulfonyl)-N-(pyrrolidin-3-yl)-1H-pyrrolo[3,2-c]quinolin-4-amine]	18	6880	664	5830	4.8	51.8	–	–	–	–	–	–	–
COc1cccc(S(=O)(=O)n2ccc3c(NC4CCNC4)nc4ccccc4c32)c1 (stereo not drawn) [Compound 13, 1-((3-methoxyphenyl)sulfonyl)-N-(pyrrolidin-3-yl)-1H-pyrrolo[3,2-c]quinolin-4-amine]	6	4850	513	5190	6.5	68.8	–	–	–	–	–	–	–
O=S(=O)(c1cccc(C(F)(F)F)c1)n1ccc2c(NC3CCNC3)nc3ccccc3c21 (stereo not drawn) [Compound 14, 1-((3-(trifluoromethyl)phenyl)sulfonyl)-N-(pyrrolidin-3-yl)-1H-pyrrolo[3,2-c]quinolin-4-amine]	7	3820	1280	–	10.8	88.8	–	–	–	–	–	–	–
O=S(=O)(c1cccc2ccccc12)n1ccc2c(NC3CCNC3)nc3ccccc3c21 (stereo not drawn) [Compound 21, 1-(naphthalen-1-ylsulfonyl)-N-(pyrrolidin-3-yl)-1H-pyrrolo[3,2-c]quinolin-4-amine]	19	1420	2260	5330	10.6	60.0	–	–	–	–	–	–	–
O=S(=O)(c1cccc2cccnc12)n1ccc2c(NC3CCNC3)nc3ccccc3c21 (stereo not drawn) [Compound 22, 1-(quinolin-8-ylsulfonyl)-N-(pyrrolidin-3-yl)-1H-pyrrolo[3,2-c]quinolin-4-amine]	4	18500	6400	15200	16.4	70.2	–	–	–	–	–	–	–
N#Cc1cccc(S(=O)(=O)n2ccc3c(N4CCNCC4)nc4ccccc4c32)c1 [Compound 38, 1-((3-cyanophenyl)sulfonyl)-4-(piperazin-1-yl)-1H-pyrrolo[3,2-c]quinoline]	14	2390	4690	218	7.0	61.3	–	–	–	–	–	–	–
CC(C)c1ccc(S(=O)(=O)n2ccc3c(N4CCNCC4)nc4ccccc4c32)cc1 [Compound 40, 1-((4-isopropylphenyl)sulfonyl)-4-(piperazin-1-yl)-1H-pyrrolo[3,2-c]quinoline]	–	3260	2540	148	−5.2	65.3	–	–	14	–	–	–	–
O=S(=O)(c1cccc2cccnc12)n1ccc2c(N3CCNCC3)nc3ccccc3c21 [Compound 45, 1-(quinolin-8-ylsulfonyl)-4-(piperazin-1-yl)-1H-pyrrolo[3,2-c]quinoline]	5	7810	6340	922	7.8	75.8	–	–	–	–	–	–	–
Cc1c(S(=O)(=O)n2ccc3c(N4CCNCC4)nc4ccccc4c32)sc2ccc(Cl)cc12 [Compound 48, 1-((5-chloro-3-methylbenzo[b]thiophen-2-yl)sulfonyl)-4-(piperazin-1-yl)-1H-pyrrolo[3,2-c]quinoline]	16	8820	190	1470	2.7	37.7	–	–	–	–	–	–	–
CN1CCN(c2nc3ccccc3c3c2ccn3S(=O)(=O)c2ccc(N)cc2)CC1 [Compound 57, 1-((4-aminophenyl)sulfonyl)-4-(4-methylpiperazin-1-yl)-1H-pyrrolo[3,2-c]quinoline]	–	–	–	–	1.5	97.3	–	–	–	–	–	–	–
CN1CCN(c2nc3ccccc3c3c2ccn3S(=O)(=O)c2cccc3cccnc23)CC1 [Compound 59, 1-(quinolin-8-ylsulfonyl)-4-(4-methylpiperazin-1-yl)-1H-pyrrolo[3,2-c]quinolone]	–	–	–	–	16.9	61.0	–	–	< 1	7690	1920	208	–
O=S(=O)(c1ccc(Cl)s1)n1ccc2c(N3CCN(Cc4ccccc4)CC3)nc3ccccc3c21 [Compound 61, 1-((5-chlorothiophen-2-yl)sulfonyl)-4-(4-benzylpiperazin-1-yl)-1H-pyrrolo[3,2-c]quinoline]	93	16200	239	12800	–	–	–	–	–	–	–	–	–
O=S(=O)(c1cccc2cccnc12)n1ccc2c(N3CCN(Cc4ccccc4)CC3)nc3ccccc3c21 [Compound 62, 1-(quinolin-8-ylsulfonyl)-4-(4-benzylpiperazin-1-yl)-1H-pyrrolo[3,2-c]quinoline]	66	5870	1470	3520	–	–	–	–	–	–	–	–	–
O=S(=O)(c1cccc(Cl)c1)n1ccc2c(N3CCCCC3)nc3ccccc3c21 [Compound 76, 1-((3-chlorophenyl)sulfonyl)-4-(piperidin-1-yl)-1H-pyrrolo[3,2-c]quinoline]	361	22300	14500	–	22.2	11.6	–	–	–	–	–	–	–
O=S(=O)(c1cccc2cccnc12)n1ccc2c(N3CCCCC3)nc3ccccc3c21 [Compound 77, 1-(quinolin-8-ylsulfonyl)-4-(piperidin-1-yl)-1H-pyrrolo[3,2-c]quinoline]	188	27000	5830	85400	–	–	–	–	–	–	–	–	–
O=S(=O)(c1cccc(Cl)c1)n1ccc2c(N3CCOCC3)nc3ccccc3c21 [Compound 78, 1-((3-chlorophenyl)sulfonyl)-4-(morpholine-4-yl)-1H-pyrrolo[3,2-c]quinoline]	157	20100	37200	457000	21.3	23.8	–	–	–	–	–	–	–
CN1C(=O)CN=C(c2ccccc2)c2cc(Cl)ccc21 [diazepam, reference compound]	–	–	–	–	–	–	–	–	–	–	–	–	5 to 10
